Assay [1] relates to Staphylococcus aureus. As to the kind of experiment: Antibacterial activity against Staphylococcus aureus TISTR 517 incubated for 8 to 12 hrs by Alamar blue reagent based microdilution broth method. The assay is classed as functional. The note with it: time 8-12 hrs. For orientation: Resazurin is reduced to fluorescent resorufin, in cell work by metabolically active cells.
The next assay deals with Salmonella typhi. The experiment in a line: Antibacterial activity against Salmonella typhi incubated for 8 to 12 hrs by Alamar blue reagent based microdilution broth method. The assay is classed as functional, Salmonella enterica subsp. enterica serovar Typhi. Particulars: Salmonella enterica; time 8-12 hrs.
Assay [2] relates to Bacillus subtilis. As to the kind of experiment: Antibacterial activity against Bacillus subtilis incubated for 8 to 12 hrs by Alamar blue reagent based microdilution broth method. The assay is classed as functional. Particulars: time 8-12 hrs.
In a further assay the test system is Enterococcus faecalis. As to the kind of experiment: Antibacterial activity against Streptococcus faecalis incubated for 8 to 12 hrs by Alamar blue reagent based microdilution broth method. The assay is classed as functional. The note with it: time 8-12 hrs.
In assay [3] the test system is Pseudomonas aeruginosa. The experiment in a line: Antibacterial activity against Pseudomonas aeruginosa incubated for 8 to 12 hrs by Alamar blue reagent based microdilution broth method. The note with it: time 8-12 hrs. The assay is classed as functional.
Assay [4] relates to Staphylococcus aureus. The experiment in a line: Antibacterial activity against methicillin resistant Staphylococcus aureus. The class given is functional.
In assay [5] the test system is Micrococcus luteus. As to the kind of experiment: Antibacterial activity against Micrococcus luteus. The assay is classed as functional.
Assay [6] relates to Staphylococcus epidermidis. As to the kind of experiment: Antibacterial activity against Staphylococcus epidermidis. The class given is functional.
For assay [7], the system named is Pseudomonas aeruginosa. The experiment in a line: Antibacterial activity against Pseudomonas aeruginosa. The assay is classed as functional.
For assay [8], the system named is Escherichia coli. The experiment in a line: Antibacterial activity against Escherichia coli. The assay is classed as functional.
The test system of assay [9] is Staphylococcus aureus. The experiment in a line: Antibacterial activity against Staphylococcus aureus. The class given is functional.
Assay [10] deals with Staphylococcus epidermidis. The experiment in a line: Antibacterial activity against Staphylococcus epidermis ATCC 12228 by Mueller-Hinton broth based two-fold serial dilution method. The class given is functional.
Assay [11] deals with Bacillus subtilis. The experiment in a line: Antibacterial activity against Bacillus subtilis TISTR 008 by Mueller-Hinton broth based two-fold serial dilution method. The class given is functional.
Assay [12] relates to Micrococcus luteus. The experiment in a line: Antibacterial activity against Micrococcus luteus TISTR 884 by Mueller-Hinton broth based two-fold serial dilution method. The assay is classed as functional.
Assay [13] deals with Staphylococcus aureus. The experiment in a line: Antibacterial activity against methicillin resistant Staphylococcus aureus by liquid dilution method. The assay is classed as functional.
A further assay has as its system Bacillus cereus. As to the kind of experiment: Antibacterial activity against Bacillus cereus TISTR 688 incubated for 16 to 18 hrs by Mueller-Hinton broth based two-fold serial dilution method. Particulars: time 16-18 hrs. The assay is classed as functional.
Assay [14] concerns Micrococcus luteus. The experiment in a line: Antibacterial activity against Micrococcus luteus TISTR 1466 incubated for 16 to 18 hrs by Mueller-Hinton broth based two-fold serial dilution method. The class given is functional. The note with it: time 16-18 hrs.
In assay [15] the test system is Escherichia coli. As to the kind of experiment: Antibacterial activity against Escherichia coli TISTR 780 incubated for 16 to 18 hrs by Mueller-Hinton broth based two-fold serial dilution method. The note with it: time 16-18 hrs. The class given is functional.
Assay [16] has as its system Pseudomonas aeruginosa. The experiment in a line: Antibacterial activity against Pseudomonas aeruginosa TISTR 781 incubated for 16 to 18 hrs by Mueller-Hinton broth based two-fold serial dilution method. The assay is classed as functional. The note with it: time 16-18 hrs.
The next assay concerns Salmonella typhimurium. As to the kind of experiment: Antibacterial activity against Salmonella typhimurium TISTR 292 incubated for 16 to 18 hrs by Mueller-Hinton broth based two-fold serial dilution method. Particulars: Salmonella enterica, time 16-18 hrs. The class given is functional, Salmonella enterica subsp. enterica serovar Typhimurium.
Assay [17] has as its system Staphylococcus epidermidis. The experiment in a line: Antibacterial activity against Staphylococcus epidermidis ATCC 12228 incubated for 16 to 18 hrs by Mueller-Hinton broth based two-fold serial dilution method.
The subject of assay [18] is Staphylococcus aureus. As to the kind of experiment: Antibacterial activity against methicillin resistant Staphylococcus aureus SK1 by Mueller-Hinton broth based two-fold serial dilution method. The class given is functional.
Assay [19] concerns Staphylococcus aureus. As to the kind of experiment: Antibacterial activity against Staphylococcus aureus TISTR 1466 by Mueller-Hinton broth based two-fold serial dilution method. The assay is classed as functional.
Assay [20] concerns Staphylococcus aureus. As to the kind of experiment: Antibacterial activity against Staphylococcus aureus NIHJ 209p. The assay is classed as functional.
The subject of assay [21] is Escherichia coli. As to the kind of experiment: Antibacterial activity against Escherichia coli NIHJ K 12. The assay is classed as functional.

Converted amounts (≈) assume the structure as drawn. Some results are limits rather than exact numbers.

For the compound `CC(C)=CCc1c2c(c(O)c3c(=O)c4ccc(O)c(O)c4oc13)C=CC(C)(C)O2`, the MIC (as a rule, the least concentration at which growth counts as inhibited) with Staphylococcus aureus [1] was 1.1 µg/mL (≈ 2.79 µM); in the assay on Salmonella typhi, 1.1 µg/mL (≈ 2.79 µM); with Bacillus subtilis [2] it was 1.1 µg/mL (≈ 2.79 µM); against Enterococcus faecalis, 1.1 µg/mL (≈ 2.79 µM); against Pseudomonas aeruginosa [3], 9.3 µg/mL (≈ 23.6 µM).

As for `C=CC(C)(C)c1c(O)c(CC=C(C)C)c(O)c2c(=O)c3ccc(O)c(O)c3oc12` [GERONTOXANTHONE I], the MIC in the assay on Staphylococcus aureus [1] was 1.1 µg/mL (≈ 2.77 µM); against Staphylococcus aureus [4] it was 3.13 µg/mL (≈ 7.9 µM); against Micrococcus luteus [5], 6.25 µg/mL (≈ 15.8 µM); against Salmonella typhi, 1.1 µg/mL (≈ 2.77 µM); against Bacillus subtilis [2], 2.5 µg/mL (≈ 6.31 µM); against Enterococcus faecalis, 3.13 µg/mL (≈ 7.9 µM). The compound further registered a minimum inhibitory concentration (MIC) in the assay on Pseudomonas aeruginosa [3] above 50 µg/mL.

As for `COc1c(O)cc2oc3cc(O)c(CC=C(C)C)c(O)c3c(=O)c2c1CC=C(C)C` [MANGOSTIN], the minimal inhibitory concentration (MIC) against Staphylococcus aureus [4] was 6.25 µg/mL (≈ 15.2 µM); in the assay with Micrococcus luteus [5], 1 µg/mL (≈ 2.44 µM); in assay [6], 1.56 µg/mL (≈ 3.8 µM); with Pseudomonas aeruginosa [7] it was 12.5 µg/mL (≈ 30.5 µM); against Escherichia coli [8], 12.5 µg/mL (≈ 30.5 µM); in the assay on Staphylococcus aureus [9], 3.13 µg/mL (≈ 7.63 µM).

Take `COc1c(O)cc2oc3cc(O)cc(O)c3c(=O)c2c1C/C=C(\C)CCC=C(C)C` [RUBRAXANTHONE]: the MIC came to 4 µg/mL (≈ 9.75 µM) in [10]; 1 µg/mL (≈ 2.44 µM) in the assay on Bacillus subtilis [11]; 2 µg/mL (≈ 4.87 µM) against Micrococcus luteus [12]; 1.25 µg/mL (≈ 3.05 µM) with Staphylococcus aureus [13]; 12 µg/mL (≈ 29.2 µM) in the assay on Staphylococcus aureus [9].

Consider `CC1(C)CC(O)Oc2cc(O)c3c(=O)c4cccc(O)c4oc3c21` (stereo unspecified), for which the MIC in the assay on Bacillus cereus was found to be 32 µg/mL (≈ 97.5 µM); against Micrococcus luteus [14] it was 16 µg/mL (≈ 48.7 µM); with Escherichia coli [15], 32 µg/mL (≈ 97.5 µM); with Pseudomonas aeruginosa [16] it was 16 µg/mL (≈ 48.7 µM); against Salmonella typhimurium it was 32 µg/mL (≈ 97.5 µM); in assay [17], 16 µg/mL (≈ 48.7 µM).

For the compound `CC(C)=CCc1c(O)cc2oc3c(c(=O)c2c1O)C[C@H](CC=C(C)C)C(=O)[C@@]3(O)CC=C(C)C`, the MIC with Staphylococcus aureus [18] and in the assay on Staphylococcus aureus [19] was 2 µg/mL (≈ 4.29 µM) each time.

As to `C=CC(C)(C)c1cc(O)c2oc3c(O)cccc3c(=O)c2c1O`, the MIC against Staphylococcus aureus [4] is 3.13 µg/mL (≈ 10 µM); with Staphylococcus aureus [9], 6.25 µg/mL (≈ 20 µM).

Turning to `C=CC(C)(C)c1cc(O)c2oc3c(O)c(O)ccc3c(=O)c2c1O`, the MIC in the assay with Staphylococcus aureus [20] came out at 12.5 µg/mL (≈ 38.1 µM); in the assay on Escherichia coli [21], 25 µg/mL (≈ 76.1 µM); with Staphylococcus aureus [13], 25 µg/mL (≈ 76.1 µM).

For `CC(C)=CCC/C(C)=C/Cc1c2c(c3oc4c(O)cccc4c(=O)c3c1O)C=CC(C)(C)O2`, the MIC with Staphylococcus aureus [1] was 2.3 µg/mL (≈ 5.15 µM); against Salmonella typhi, 4.6 µg/mL (≈ 10.3 µM); with Bacillus subtilis [2], 4.6 µg/mL (≈ 10.3 µM); against Enterococcus faecalis, 18.7 µg/mL (≈ 41.9 µM); against Pseudomonas aeruginosa [3], above 50 µg/mL.

Values taken from ChEMBL document CHEMBL5223092, “Antibacterial activities of plant-derived xanthones” (RSC Med Chem, 2022).
